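Cultured in 96-well plates, cells were exposed to test compound for 48 hours across five concentrations. The concentration for full growth arrest is given as TGI.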
Legend:
Assay in all cases: NCI tumour cell line growth inhibition, 48 h
HOP-18 NSCLC = system: HOP-18 NSCLC
SK-OV-3 ovarian = system: SK-OV-3 ovarian
ACHN renal = system: ACHN renal
RPMI-8226 leukemia = system: RPMI-8226 leukemia
HOP-62 NSCLC = system: HOP-62 NSCLC
HCT-116 colon = system: HCT-116 colon
SF-268 CNS = system: SF-268 CNS
DLD-1 colon = system: DLD-1 colon
SNB-19 CNS = system: SNB-19 CNS
NCI-H522 lung = system: NCI-H522 lung
OVCAR-8 ovarian = system: OVCAR-8 ovarian
NCI-H23 lung = system: NCI-H23 lung
SR leukemia = system: SR leukemia
786-0 renal = system: 786-0 renal
MOLT-4 leukemia = system: MOLT-4 leukemia
K-562 leukemia = system: K-562 leukemia
HOP-92 NSCLC = system: HOP-92 NSCLC
COLO 205 colon = system: COLO 205 colon
M19-MEL melanoma = system: M19-MEL melanoma
TK-10 renal = system: TK-10 renal
U251 CNS = system: U251 CNS
RXF-631 renal = system: RXF-631 renal
OVCAR-4 ovarian = system: OVCAR-4 ovarian
LXFL 529 NSCLC = system: LXFL 529 NSCLC
SNB-75 CNS = system: SNB-75 CNS
SN12C renal = system: SN12C renal
IGROV1 ovarian = system: IGROV1 ovarian
HL-60(TB) leukemia = system: HL-60(TB) leukemia
SK-MEL-2 melanoma = system: SK-MEL-2 melanoma
DMS 114 small cell lung = system: DMS 114 small cell lung
KM20L2 colon = system: KM20L2 colon
KM12 colon = system: KM12 colon
NCI-H226 lung = system: NCI-H226 lung
NCI-H460 lung = system: NCI-H460 lung
HT29 colon = system: HT29 colon
EKVX NSCLC = system: EKVX NSCLC
A549 NSCLC = system: A549 NSCLC
RXF 393 renal = system: RXF 393 renal
OVCAR-3 ovarian = system: OVCAR-3 ovarian
M14 melanoma = system: M14 melanoma
SF-295 CNS = system: SF-295 CNS
UACC-62 melanoma = system: UACC-62 melanoma
HCT-15 colon = system: HCT-15 colon
CAKI-1 renal = system: CAKI-1 renal
SK-MEL-28 melanoma = system: SK-MEL-28 melanoma
SW-620 colon = system: SW-620 colon
MALME-3M melanoma = system: MALME-3M melanoma
SF-539 CNS = system: SF-539 CNS
UO-31 renal = system: UO-31 renal
XF 498 CNS = system: XF 498 CNS
UACC-257 melanoma = system: UACC-257 melanoma
CCRF-CEM leukemia = system: CCRF-CEM leukemia
SK-MEL-5 melanoma = system: SK-MEL-5 melanoma
OVCAR-5 ovarian = system: OVCAR-5 ovarian
DMS 273 small cell lung = system: DMS 273 small cell lung
SNB-78 CNS = system: SNB-78 CNS
LOX IMVI melanoma = system: LOX IMVI melanoma
HCC-2998 colon = system: HCC-2998 colon
P388 leukemia = system: P388 leukemia
A498 renal = system: A498 renal
SN12K1 renal = system: SN12K1 renal
P388/ADR leukemia = system: P388/ADR leukemia
NCI/ADR-RES ovarian = system: NCI/ADR-RES ovarian
MCF7 breast = system: MCF7 breast

Measured: TGI

Cc1cc(C)c(C(=O)/C(=C/c2ccccc2)c2ccccc2)c(C)c1
43.4 µM: SK-MEL-2 melanoma
77.2 µM: NCI-H522 lung
90.6 µM: HL-60(TB) leukemia
not listed: OVCAR-5 ovarian | DMS 273 small cell lung | SNB-78 CNS | LOX IMVI melanoma | HCC-2998 colon | P388 leukemia | A498 renal | SN12K1 renal | P388/ADR leukemia | NCI/ADR-RES ovarian | MCF7 breast
> 100 µM: all other assays above

O=C(CC(=O)N1N=C(c2ccccc2)C(N=Nc2ccccc2Cl)C1=O)Nc1ccccc1Cl (stereo unspecified)
57.2 µM: RPMI-8226 leukemia
99.6 µM: ACHN renal
40.6 µM: TK-10 renal
81.3 µM: OVCAR-3 ovarian
52.5 µM: SK-MEL-5 melanoma
51.1 µM: XF 498 CNS
25.9 µM: HL-60(TB) leukemia
65.3 µM: SF-295 CNS
49.6 µM: 786-0 renal
54.5 µM: SR leukemia
49.9 µM: SNB-75 CNS
63.2 µM: OVCAR-4 ovarian
44.6 µM: HT29 colon
not listed: HOP-18 NSCLC | HOP-92 NSCLC | RXF 393 renal | MALME-3M melanoma | CCRF-CEM leukemia | P388 leukemia | A498 renal | SN12K1 renal | P388/ADR leukemia | NCI/ADR-RES ovarian | MCF7 breast
> 100 µM: all other assays above

COCC1N=C(c2cc(OC)c(OC)c(OC)c2-c2cc3c(cc2[C@@H](C)O)OCO3)O[C@H]1c1ccccc1 (stereo partly specified)
> 95.5 µM: EKVX NSCLC
> 72.3 µM: SNB-75 CNS
> 95.7 µM: NCI/ADR-RES ovarian
> 87.7 µM: SK-MEL-2 melanoma
> 84.5 µM: HOP-92 NSCLC
> 91.6 µM: RXF 393 renal
> 87.4 µM: SNB-78 CNS
not listed: ACHN renal | SR leukemia | 786-0 renal | TK-10 renal | RXF-631 renal | LXFL 529 NSCLC | DMS 114 small cell lung | M14 melanoma | XF 498 CNS
> 100 µM: all other assays above

— PubChem BioAssay (NCI)
